Test results published in ChEMBL document CHEMBL6127119 (J Med Chem, 2024).
≈ marks a conversion by molar mass, not a printed value. Calls of active or inactive are those of the source. The calls are words filed in the database; no cut-off is given here.

Experiments:
[1] = test system: Enterococcus faecium; experiment: Antibacterial activity against vancomycin-resistant Enterococcus faecium harboring VanA phenotype clinical isolate incubated for 16 to 24 hrs by CLSI based broth microdilution method; type: functional; details: time 16-24 hrs
[2] = test system: Escherichia coli; experiment: Bactericidal activity against Escherichia coli AB1157 assessed as reduction in bacterial count at 8 times MIC measured after 24 hrs by time kill assay; type: functional
[3] = test system: Staphylococcus aureus; experiment: Induction of cytoplasmic membrane permeabilization in methicillin-resistant Staphylococcus aureus MRSA252 measured for 40 mins by PI/NPN staining based analysis; type: functional, organism-based; details: dose 1-128 µg/ml
[4] = test system: Staphylococcus aureus; experiment: Induction of drug resistance in vancomycin-sensitive Staphylococcus aureus MRSA252 assessed as change in MIC measured after 16 days of serial passages by broth microdilution method; type: functional, organism-based; details: time 16.0 day
[5] = test system: Staphylococcus aureus; experiment: Antibacterial activity against methicillin-susceptible Staphylococcus aureus incubated for 16 to 24 hrs by CLSI based broth microdilution method; type: functional; details: time 16-24 hrs
[6] = Toxicity in BALB/c mouse infected with methicillin-resistant Staphylococcus aureus MRSA252 assessed as survival rate at 10 to 20 mg/kg, iv for 7 days; type: organism-based; details: in vivo, 168 h, dose 10-20 mg/kg, time 7 day
[7] = test system: Enterococcus faecalis; experiment: Induction of inner membrane permeabilization in Enterococcus faecalis ATCC29212 measured for 20 mins by DiSC3(5) staining based analysis; type: functional, organism-based; details: dose 1-128 µg/ml
[8] = test system: Staphylococcus aureus; experiment: Antibacterial activity against Staphylococcus aureus Mu50 at 1:1 ratio of compound and phosphatidylglycerol at […] incubated for 16 to 24 hrs by absorbance based assay; type: functional, organism-based; details: dose 128.0 µg/ml, time 16-24 hrs
[9] = test system: Escherichia coli; experiment: Potency index, ratio of Vancomycin MIC to test compound MIC for Escherichia coli […] incubated for 16 to 24 hrs by CLSI based broth microdilution method; type: functional; details: time 16-24 hrs
[10] = test system: Escherichia coli; experiment: Inhibition of peptidoglycan biosynthesis in Escherichia coli AB1157 assessed as increase in accumulation of Park's nucleotide at 16 ug/ml incubated for 2 hrs by RP-HPLC analysis; type: functional, organism-based; details: dose 16.0 µg/ml
[11] = Clearance in CD-1 mouse at 10 mg/kg, iv measured for 24 hrs by UPLC analysis; type: ADME, organism-based; details: in vivo
[12] = test system: Staphylococcus aureus; experiment: Post-antibiotic effect in Staphylococcus aureus MRSA252 at 10 times measured after 7 hrs; type: functional, organism-based
[13] = test system: Staphylococcus hominis; experiment: Antibacterial activity against methicillin-resistant Staphylococcus hominis clinical isolate incubated for 16 to 24 hrs by CLSI based broth microdilution method; type: functional; details: time 16-24 hrs
[14] = Hemolytic activity in rat RBC upto 100 ug/ml incubated for 1 hr by absorbance based assay; type: toxicity, cell-based; details: erythrocyte, dose < 100 µg/ml
[15] = test system: Staphylococcus aureus; experiment: Potency index, ratio of Vancomycin MIC to test compound MIC for vancomycin-intermediate Staphylococcus aureus incubated for 16 to 24 hrs by CLSI based broth microdilution method; type: functional; details: time 16-24 hrs
[16] = test system: Enterococcus faecium; experiment: Potency index, ratio of Norvancomycin MIC to test compound MIC for vancomycin-resistant Enterococcus faecium incubated for 16 to 24 hrs by CLSI based broth microdilution method; type: functional; details: time 16-24 hrs
[17] = test system: Enterococcus faecium; experiment: Bacteriostatic activity against Enterococcus faecium SC-2022-D2-059 harboring VanA phenotype at 1 to 8 times MIC measured after 24 hrs by time kill assay; type: functional, organism-based
[18] = test system: Peptidoglycan; experiment: Binding affinity to Ac-Lys(Gly5)-D-Ala-D-Ala lipid II model peptide moiety assessed as change in Gibb's free energy by ITC analysis
[19] = test system: Staphylococcus aureus; experiment: Antibacterial activity against Staphylococcus aureus Mu50 assessed as fold decrease in MIC at 1:1 ratio of compound and Ac2KAA at […] incubated for 16 to 24 hrs by absorbance based assay relative to control; type: functional; details: dose 128 µg/ml; time 16-24 hrs
[20] = test system: Peptidoglycan; experiment: Binding affinity to Ac-Lys(Gly5)-D-Ala-D-Ala lipid II model peptide moiety assessed as association constant by ITC analysis
[21] = test system: Staphylococcus aureus; experiment: Inhibition of peptidoglycan biosynthesis in Staphylococcus aureus MRSA252 assessed as increase in accumulation of Park's nucleotide at 0.5 ug/ml incubated for 2 hrs by RP-HPLC analysis; type: functional, organism-based; details: dose 0.5 µg/ml
[22] = test system: Staphylococcus aureus; experiment: Post-antibiotic effect in Staphylococcus aureus MRSA252 assessed as time of effect at 20 times; type: functional
[23] = test system: Enterococcus faecium; experiment: Antibacterial activity against vancomycin-resistant Enterococcus faecium harboring VanM phenotype incubated for 16 to 24 hrs by CLSI based broth microdilution method; type: functional; details: time 16-24 hrs
[24] = test system: Staphylococcus aureus; experiment: Antibacterial activity against vancomycin-intermediate Staphylococcus aureus incubated for 16 to 24 hrs by CLSI based broth microdilution method; type: functional; details: time 16-24 hrs
[25] = test system: Pseudomonas aeruginosa; experiment: Antibacterial activity against Pseudomonas aeruginosa PAO1 incubated for 16 to 24 hrs by CLSI based broth microdilution method; type: functional; details: time 16-24 hrs
[26] = test system: Staphylococcus aureus; experiment: Bacteriostatic activity against methicillin-resistant Staphylococcus aureus MRSA252 at MIC measured after 24 hrs by time kill assay; type: functional, organism-based
[27] = MRT (infinity) in CD-1 mouse at 10 mg/kg, iv measured for 24 hrs by UPLC analysis; type: ADME, organism-based; details: in vivo
[28] = test system: Escherichia coli; experiment: Potency index, ratio of Norvancomycin MIC to test compound MIC for Escherichia coli […] incubated for 16 to 24 hrs by CLSI based broth microdilution method; type: functional; details: time 16-24 hrs
[29] = Volume of distribution at steady state in CD-1 mouse at 10 mg/kg, iv measured for 24 hrs by UPLC analysis; type: ADME, organism-based; details: in vivo, read-out: Vdss
[30] = test system: Enterococcus faecium; experiment: Antibacterial activity against vancomycin-resistant Enterococcus faecium harboring VanA phenotype incubated for 16 to 24 hrs by CLSI based broth microdilution method; type: functional; details: time 16-24 hrs
[31] = test system: Staphylococcus aureus; experiment: Induction of membrane disruption in Staphylococcus aureus MRSA252 assessed as leakage of protoplasm content at 1 to 8 ug/ml incubated for 4 to 24 hrs by SEM analysis; type: functional, organism-based; details: dose 1-8 µg/ml, time 4-24 hrs
[32] = test system: Escherichia coli; experiment: Induction of cytoplasmic membrane depolarization in Escherichia coli AB1157 at 5 uM by DiSC3(5) staining based analysis; type: functional, organism-based
[33] = AUC (infinity) in CD-1 mouse at 10 mg/kg, iv measured for 24 hrs by UPLC analysis; type: ADME, organism-based; details: in vivo
[34] = test system: Enterococcus faecium; experiment: Antibacterial activity against vancomycin-resistant Enterococcus faecium harboring VanB phenotype incubated for 16 to 24 hrs by CLSI based broth microdilution method; type: functional; details: time 16-24 hrs
[35] = test system: Enterococcus faecium; experiment: Potency index, ratio of Vancomycin MIC to test compound MIC for vancomycin-resistant Enterococcus faecium incubated for 16 to 24 hrs by CLSI based broth microdilution method; type: functional; details: time 16-24 hrs
[36] = test system: Staphylococcus aureus; experiment: Bactericidal activity against methicillin-resistant Staphylococcus aureus MRSA252 assessed as reduction in bacterial count at 4 to 8 times MIC measured after 24 hrs by time kill assay; type: functional
[37] = test system: Enterococcus faecium; experiment: Antibacterial activity against Enterococcus faecium clinical isolate incubated for 16 to 24 hrs by CLSI based broth microdilution method; type: functional; details: time 16-24 hrs
[38] = test system: Acinetobacter baumannii; experiment: Potency index, ratio of Vancomycin MIC to test compound MIC for Carbapenem-resistant Acinetobacter baumannii clinical isolate incubated for 16 to 24 hrs by CLSI based broth microdilution method; type: functional; details: time 16-24 hrs
[39] = test system: Acinetobacter baumannii; experiment: Potency index, ratio of Norvancomycin MIC to test compound MIC for Carbapenem-resistant Acinetobacter baumannii clinical isolate incubated for 16 to 24 hrs by CLSI based broth microdilution method; type: functional; details: time 16-24 hrs

SMILES: CC(C)C[C@@H](N)C(=O)N[C@H]1C(=O)N[C@@H](CC(N)=O)C(=O)N[C@H]2C(=O)N[C@H]3C(=O)N[C@H](C(=O)N[C@H](C(=O)NCc4ccc(-c5ccc(CNC(=N)N)cc5)cc4)c4cc(O)cc(O)c4-c4cc3ccc4O)[C@H](O)c3ccc(c(Cl)c3)Oc3cc2cc(c3O[C@@H]2O[C@H](CO)[C@@H](O)[C@H](O)[C@H]2O[C@H]2C[C@](C)(N)[C@H](O)[C@H](C)O2)Oc2ccc(cc2Cl)[C@H]1O
- MIC [1]: 2 µg/mL (≈ 1.2 µM)
- Activity [2]: 3 log10CFU/ml
- Activity [3]: Dose-Dependent Effect
- Activity [4]: inactive
- MIC [5]: ≤ 0.063 µg/mL
- Activity [6]: 100%
- Activity [7]: Dose-Dependent Effect
- Activity [8]: Active
- Ratio [9]: 2
- Activity [10]: Active
- clearance [11]: 4.2 mL/min/kg
- Activity [12]: Active
- MIC [13]: ≤ 0.03 µg/mL
- Activity [14]: Non-Toxic
- Ratio [15]: 2
- Ratio [16]: 2
- Activity [17]: Active
- deltaG [18]: -8.69 kcal/mol
- fold change (FC) [19]: 2
- Ka [20]: 2.32e+06 M⁻¹
- Activity [21]: Active
- Time [22]: 23 h
- MIC [23]: 4 µg/mL (≈ 2.39 µM)
- MIC [24]: 1 µg/mL (≈ 0.598 µM)
- MIC [25]: > 128 µg/mL
- Activity [26]: Active
- MRT inf [27]: 20.2 h
- Ratio [28]: 2
- Vd [29]: 5.12 L/kg
- MIC [30]: 4 µg/mL (≈ 2.39 µM)
- Activity [31]: Active
- Activity [32]: inactive
- AUC(0-inf) [33]: 40000 ng·h/mL
- MIC [34]: 2 µg/mL (≈ 1.2 µM)
- Ratio [35]: 2
- Activity [36]: ~1 log10CFU/ml
- MIC [37]: ≤ 0.03 µg/mL
- Ratio [38]: 2
- Ratio [39]: 2
